From ChEMBL document CHEMBL4118135, “Optimized allosteric inhibition of engineered protein tyrosine phosphatases with an expanded palette of biarsenical small molecules” (Bioorg Med Chem, 2018)
Numbering of substitutions follows the chain as printed. Calls of active or inactive are those of the source. The rule behind the calls is not given here.

What was measured:
[1] = test system: T1, Tyrosine-protein phosphatase non-receptor type 1 (Homo sapiens), P18031 [P87C,A122C]; test: Inhibition of allosterically sensitized His6-tagged human PTP1B catalytic domain P87C/A122C mutant at 2000 nM using pNPP as substrate incubated for =
T1 sequence (whole entry): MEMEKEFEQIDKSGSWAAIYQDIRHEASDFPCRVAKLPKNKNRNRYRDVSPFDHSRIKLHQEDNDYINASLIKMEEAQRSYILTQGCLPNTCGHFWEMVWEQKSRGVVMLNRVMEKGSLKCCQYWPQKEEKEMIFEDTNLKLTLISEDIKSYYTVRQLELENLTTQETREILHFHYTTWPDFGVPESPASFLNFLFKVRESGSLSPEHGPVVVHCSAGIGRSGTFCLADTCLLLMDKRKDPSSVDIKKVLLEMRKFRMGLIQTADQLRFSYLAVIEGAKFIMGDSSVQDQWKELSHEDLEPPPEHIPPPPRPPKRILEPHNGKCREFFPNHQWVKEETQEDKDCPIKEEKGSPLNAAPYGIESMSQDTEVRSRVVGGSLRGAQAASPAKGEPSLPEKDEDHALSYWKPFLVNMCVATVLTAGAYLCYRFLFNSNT

[2] = target: T2, Tyrosine-protein phosphatase non-receptor type 1 (Homo sapiens) (UniProt P18031); test: Inhibition of His6-tagged human wild-type PTP1B catalytic domain at 500 nM using DADEpYLIPQQG as substrate incubated for 90 mins by continuous phosphatase activity assay
T2 sequence (whole entry): T1 sequence (whole entry) with C87P, C122A

[3] = target: T2, Tyrosine-protein phosphatase non-receptor type 1 (Homo sapiens); test: Inhibition of His6-tagged human wild-type PTP1B catalytic domain overexpressed in Escherichia coli BL21(DE3) cells at 100 uM using pNPP as substrate incubated for 90 mins by quenched phosphatase activity assay
[4] = target: T2, Tyrosine-protein phosphatase non-receptor type 1 (Homo sapiens); test: Binding affinity to His6-tagged human wild-type PTP1B catalytic domain overexpressed in Escherichia coli BL21(DE3) cells at 100 uM using pNPP as substrate after 90 mins by SDS-PAGE analysis
[5] = target: Tyrosine-protein phosphatase non-receptor type 7 (Homo sapiens, UniProt P35236, P171C/V205C); test: Inhibition of allosterically sensitized mutant form of His6-tagged human HePTP catalytic domain overexpressed in Escherichia coli crude cell lysate using pNPP as substrate incubated for 90 mins by quenched phosphatase activity assay
Sequence of Tyrosine-protein phosphatase non-receptor type 7 (P35236 whole entry P171C/V205C, the tested form may be a part): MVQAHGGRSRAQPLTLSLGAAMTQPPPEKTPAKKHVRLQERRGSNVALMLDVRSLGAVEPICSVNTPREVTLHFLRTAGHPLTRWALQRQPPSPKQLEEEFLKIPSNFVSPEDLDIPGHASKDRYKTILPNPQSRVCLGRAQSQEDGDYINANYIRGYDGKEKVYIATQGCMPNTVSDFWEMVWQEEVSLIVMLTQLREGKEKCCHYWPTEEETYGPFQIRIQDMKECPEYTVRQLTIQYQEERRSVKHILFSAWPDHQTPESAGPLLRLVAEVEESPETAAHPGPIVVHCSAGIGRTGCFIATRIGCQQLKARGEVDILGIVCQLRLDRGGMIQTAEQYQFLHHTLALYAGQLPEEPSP

## CC1(C)C(/C=C/C=C2/N(CCCCS(=O)(=O)O)c3ccc([As]4SCCS4)cc3C2(C)C)=[N+](CCCCS(=O)(=O)O)c2ccc([As]3SCCS3)cc21
[1]
  inhibition: 50%
[2]
  inhibition: inactive
[3]
  inhibition: inactive
[4]
  Activity: inactive

## O=C(O)c1ccccc1-c1c2ccc(=O)c([As]3SCCS3)c-2oc2c([As]3SCCS3)c(O)ccc12
[5]
  IC50: 250 nM
